Measured values from patent US20190030009A1, “COMPOUNDS AND COMPOSITIONS FOR THE TREATMENT OF CRYPTOSPORIDIOSIS” (Novartis AG, priority 2016, published 2019).

Tested on: Cryptosporidium parvum
Test: Cytopathic effect (CPE) based assay, C. parvum infected HCT-8 cells
Settings: HCT-8 host cell viability (CellTiter-Glo), 48 hours treatment, read-out: Cp CPE EC50
Summary of the method: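 HCT-8 cells were batch-infected with excysted C. parvum (Iowa isolate) oocysts at MOI 1:2 (host:parasite) for 3 h at 37 °C, then seeded and incubated 24 h before compound addition. Compounds were given as 3-fold dilution series (final DMSO <0.5%). Host-cell loss (cytopathic effect) was read as viability with CellTiter-Glo.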

Compound: N#Cc1ccc(N(C(=O)c2ccn3ncc(-c4ccc(C(=O)NC5COC5)cc4)c3c2)C2CC2)nc1 [Example 131]
- EC50: 2730 nM

Compound: N#Cc1ccc(N(C(=O)c2ccn3ncc(-c4ccc(C(N)=O)cc4)c3c2)C2CC2)nc1 [Example 120]
- EC50: 172 nM

Compound: N#Cc1ccc(N(C(=O)c2ccn3ncc(-c4ccc(C(=O)NC5CC5)cc4)c3c2)C2CC2)nc1 [Example 123]
- EC50: 2990 nM

Compound: CCN(C(=O)c1ccn2ncc(-c3ccc(C(=O)NC)nc3)c2c1)c1ccc(C#N)cn1 [Example 150]
- EC50: 1070 nM

Compound: CNC(=O)c1ccc(-c2cnn3ccc(C(=O)N(c4ccc(C(F)(F)F)cn4)C4CCC4)cc23)cc1 [Example 160]
- EC50: 85 nM

Compound: CNC(=O)c1ccc(-c2cnn3ccc(C(=O)N(c4ccc(C#N)cn4)C(C)C)cc23)cc1 [Example 91]
- EC50: 129 nM

Compound: CNC(=O)c1ccc(-c2cnn3ccc(C(=O)N(c4ccc(Cl)cn4)C4CC4)cc23)cc1 [Example 124]
- EC50: 103 nM

Compound: CNC(=O)c1ccc(-c2cnn3ccc(C(=O)N(c4ccc(C#N)cn4)C4CCC4)cc23)cc1 [Example 112]
- EC50: 270 nM

Compound: CNC(=O)c1ccc(-c2cnn3ccc(C(=O)N(c4ccc(C(F)(F)F)cn4)C(C)C)cc23)cc1 [Example 153]
- EC50: 39 nM

Compound: CCN(C(=O)c1ccn2ncc(-c3ccc(C(=O)NC)cc3)c2c1)c1ccc(C#N)cn1 [Example 90]
- EC50: 68 nM

Compound: CC(C)NC(=O)c1ccc(-c2cnn3ccc(C(=O)N(c4ccc(C#N)cn4)C4CC4)cc23)cc1 [Example 121]
- EC50: 8640 nM

Compound: CCNC(=O)c1ccc(-c2cnn3ccc(C(=O)N(c4ccc(C#N)cn4)C4CC4)cc23)cc1 [Example 127]
- EC50: 102 nM

Compound: CCN(C(=O)c1ccn2ncc(-c3ccc(C(=O)NC)cc3)c2c1)c1ccc(C(F)(F)F)cn1 [Example 96]
- EC50: 50 nM

Compound: CNC(=O)c1ccc(-c2cnn3ccc(C(=O)N(NC)c4ccc(C#N)cc4)cc23)cn1 [Example 92]
- EC50: 310 nM

Compound: CNC(=O)c1ccc(-c2cnn3ccc(C(=O)N(c4ccc(C#N)c(OC)n4)C4CC4)cc23)cc1 [Example 149]
- EC50: 55 nM

Compound: CNC(=O)c1ccc(-c2cnn3ccc(N(C)C(=O)c4ccc(C#N)cn4)cc23)cc1 [Example 94]
- EC50: 368 nM
